Measured values published in paper PMC6753678, “Fueling Open Innovation for Malaria Transmission-Blocking Drugs: Hundreds of Molecules Targeting Early Parasite Mosquito Stages” (Frontiers in Microbiology, 2019).

Key:
HepG2 cells = assay: HepG2 cytotoxicity assay; conditions: unified HepG2 cytotoxicity across the three screens
Outline: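 Percent inhibition derived from fluorescent viability readout, normalised to DMSO (negative) and 50 μM doxorubicin (positive). Compound incubation lasted 48 h at 37°C, 5% CO2, with 2,500 HepG2 cells/well in MEM plus 10% FBS and 1% NEAA.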

[1] = system: P. falciparum female gametocytes; set-up: method as in Miguel-Blanco et al 2017; conditions: ref Miguel-Blanco et al 2017; read-out: Pf FGAA IC50; cited from earlier work
[2] = system: P. falciparum female gametocytes; assay: P. falciparum female gametogenesis assay (Pf FGAA); conditions: 1: YES; 0: NO; >10-fold selectivity over cytotox

Compound: COc1ccc(NC(=O)c2cccc(Br)c2)cc1N1CCN(CCCCCCCN2CCN(c3cc(NC(=O)c4cccc(Br)c4)ccc3OC)CC2)CC1.Cl [TCMDC-139020]
- Unified cytotox (HepG2 cells): 6.03 µM
- IC50 [1]: 1.06 µM
- Is compound selective in assay? Pf FGAA active? [2]: 0 (0: NO)

Compound: Oc1ccc2[nH]cc(C3CCN(CCCNCc4ccc(-c5ccccc5)cc4)CC3)c2c1 [TCMDC-139047]
- Unified cytotox (HepG2 cells): 5.62 µM
- IC50 [1]: 1.44 µM
- Is compound selective in assay? Pf FGAA active? [2]: 0 (0: NO)

Compound: Cl.Nc1c2c(nc3ccc(NC(=O)CCCCCCc4ccccc4)cc13)CCCC2 [TCMDC-139056]
- Unified cytotox (HepG2 cells): 5.42 µM
- IC50 [1]: 2.38 µM
- Is compound selective in assay? Pf FGAA active? [2]: 0 (0: NO)

Compound: COC(=O)c1ccc(-c2ccc(-c3cccnc3)cc2C)cc1 [TCMDC-139074]
- Unified cytotox (HepG2 cells): 3.63 µM
- IC50 [1]: 0.59 µM
- Is compound selective in assay? Pf FGAA active? [2]: 0 (0: NO)

Compound: c1ccc(C23N=C(Nc4nc5ccccc5[nH]4)NC2(c2ccccc2)NC(Nc2nc4ccccc4[nH]2)=N3)cc1 (stereo not drawn) [TCMDC-139082]
- Unified cytotox (HepG2 cells): 58.90 µM
- IC50 [1]: 0.14 µM
- Is compound selective in assay? Pf FGAA active? [2]: 1 (1: YES)

Compound: COc1cccc(C23N=C(Nc4nc5ccccc5[nH]4)NC2(c2cccc(OC)c2)NC(Nc2nc4ccccc4[nH]2)=N3)c1 (stereo not drawn) [TCMDC-139087]
- Unified cytotox (HepG2 cells): 40.74 µM
- IC50 [1]: 0.09 µM
- Is compound selective in assay? Pf FGAA active? [2]: 1 (1: YES)

Compound: Clc1cccc(C23N=C(Nc4nc5ccccc5[nH]4)NC2(c2ccccc2)NC(Nc2nc4ccccc4[nH]2)=N3)c1 (stereo not drawn) [TCMDC-139089]
- Unified cytotox (HepG2 cells): 42.76 µM
- IC50 [1]: 0.15 µM
- Is compound selective in assay? Pf FGAA active? [2]: 1 (1: YES)

Compound: c1ccc(-c2nc(Nc3nc4ccccc4[nH]3)[nH]c2-c2ccccc2)cc1 [TCMDC-139099]
- Unified cytotox (HepG2 cells): 10.98 µM
- IC50 [1]: 0.58 µM
- Is compound selective in assay? Pf FGAA active? [2]: 1 (1: YES)

Compound: Cc1cc2nc(N=C3NC4(c5ccccn5)NC(=Nc5nc6cc(C)c(C)cc6[nH]5)NC4(c4ccccn4)N3)[nH]c2cc1C.O=C(O)C(F)(F)F (stereo not drawn) [TCMDC-139105]
- Unified cytotox (HepG2 cells): 35.91 µM
- IC50 [1]: 5.34 µM
- Is compound selective in assay? Pf FGAA active? [2]: 0 (0: NO)

Compound: CN1CCN(c2cc3c(cc2Cl)CCN3C(=O)Nc2ccc(NC(=O)c3ccc(C(F)(F)F)cc3)cc2)CC1.Cl [TCMDC-139270]
- Unified cytotox (HepG2 cells): 3.99 µM
- IC50 [1]: 0.69 µM
- Is compound selective in assay? Pf FGAA active? [2]: 0 (0: NO)

Compound: CC(NCCc1cccc(Cl)c1)C(O)c1ccc(OCCCCCCOc2ccc(C(O)C(C)NCCc3cccc(Cl)c3)cc2)cc1 (stereo not drawn) [TCMDC-139334]
- Unified cytotox (HepG2 cells): 2.63 µM
- IC50 [1]: 1 µM
- Is compound selective in assay? Pf FGAA active? [2]: 0 (0: NO)

Compound: Cc1cc(N)c2cc(NC(=O)/C=C/c3ccc([N+](=O)[O-])cc3)ccc2n1 [TCMDC-139335]
- Unified cytotox (HepG2 cells): 5.37 µM
- IC50 [1]: 2.69 µM
- Is compound selective in assay? Pf FGAA active? [2]: 0 (0: NO)

Compound: Cc1cc(N)c2cc(NC(=O)c3cc(C(F)(F)F)cc(C(F)(F)F)c3)ccc2n1.Cl [TCMDC-139377]
- Unified cytotox (HepG2 cells): 2.60 µM
- IC50 [1]: 0.86 µM
- Is compound selective in assay? Pf FGAA active? [2]: 0 (0: NO)

Compound: O=C(Nc1cc(Cl)c(Cl)cc1NC(=O)c1cccc(-c2ccccc2)c1O)c1cccc(-c2ccccc2)c1O [TCMDC-139548]
- Unified cytotox (HepG2 cells): 3.09 µM
- IC50 [1]: 1.09 µM
- Is compound selective in assay? Pf FGAA active? [2]: 0 (0: NO)

Compound: COc1ccc2nc(N=C3NC4(c5ccccc5)NC(=Nc5nc6ccc(OC)cc6[nH]5)NC4(c4ccccc4)N3)[nH]c2c1.O=C(O)C(F)(F)F (stereo not drawn) [TCMDC-139632]
- Unified cytotox (HepG2 cells): 62.72 µM
- IC50 [1]: 0.12 µM
- Is compound selective in assay? Pf FGAA active? [2]: 1 (1: YES)

Compound: CC(Cc1ccc(NS(=O)(=O)c2ccc(CC(C)NCCc3cccc(Cl)c3)cc2)cc1)NCCc1cccc(Cl)c1 (stereo not drawn) [TCMDC-139797]
- Unified cytotox (HepG2 cells): 4.37 µM
- IC50 [1]: 1.84 µM
- Is compound selective in assay? Pf FGAA active? [2]: 0 (0: NO)

Compound: CC(Cc1ccc(NC(=O)c2ccc(CC(C)NCc3ccc(Cl)cc3)cc2)cc1)NCCc1cccc(Cl)c1 (stereo not drawn) [TCMDC-139810]
- Unified cytotox (HepG2 cells): 4.03 µM
- IC50 [1]: 0.86 µM
- Is compound selective in assay? Pf FGAA active? [2]: 0 (0: NO)

Compound: CC(Cc1ccc(NC(=O)c2ccc(CNCCCCc3ccccc3)cc2)cc1)NCCc1cccc(Cl)c1.Cl (stereo not drawn) [TCMDC-139866]
- Unified cytotox (HepG2 cells): 1.97 µM
- IC50 [1]: 1.12 µM
- Is compound selective in assay? Pf FGAA active? [2]: 0 (0: NO)

Compound: CC(Cc1ccc(NC(=O)c2ccc(CNCCc3ccccc3)cc2)cc1)NCCc1cccc(Cl)c1.Cl (stereo not drawn) [TCMDC-139867]
- Unified cytotox (HepG2 cells): 4.17 µM
- IC50 [1]: 2.07 µM
- Is compound selective in assay? Pf FGAA active? [2]: 0 (0: NO)

Compound: CCCCCCCN1CC[C@@H](CCCc2ccnc3ccc(OC)cc23)[C@@H](CNC)C1.O=C(O)C(=O)O [TCMDC-139875]
- Unified cytotox (HepG2 cells): 5.89 µM
- IC50 [1]: 0.73 µM
- Is compound selective in assay? Pf FGAA active? [2]: 0 (0: NO)

Compound: CN(C)CCCNCc1ccc(-c2ccc(C(F)(F)F)cc2)cc1 [TCMDC-140011]
- Unified cytotox (HepG2 cells): 4.90 µM
- IC50 [1]: 1.68 µM
- Is compound selective in assay? Pf FGAA active? [2]: 0 (0: NO)

Compound: COc1cccc(CCNC(C)Cc2ccc(OCCCCOc3ccccc3)cc2)c1 (stereo not drawn) [TCMDC-140020]
- Unified cytotox (HepG2 cells): 1.46 µM
- IC50 [1]: 1.51 µM
- Is compound selective in assay? Pf FGAA active? [2]: 0 (0: NO)

Compound: Nc1ccc2[nH]cc(C3CCN(CC4CCN(C(=O)/C=C/c5ccc(Cl)c(Cl)c5)CC4)CC3)c2n1 [TCMDC-140061]
- Unified cytotox (HepG2 cells): 5.89 µM
- IC50 [1]: 1.77 µM
- Is compound selective in assay? Pf FGAA active? [2]: 0 (0: NO)

Compound: Nc1ccc2[nH]cc(C3CCN(CCC4CCN(C(=O)/C=C/c5ccc(Cl)c(Cl)c5)CC4)CC3)c2n1 [TCMDC-140062]
- Unified cytotox (HepG2 cells): 8.13 µM
- IC50 [1]: 1.29 µM
- Is compound selective in assay? Pf FGAA active? [2]: 0 (0: NO)

Compound: Nc1ccc2[nH]cc(C3CCN(CC4CCC(NC(=O)/C=C/c5ccc(Cl)c(Cl)c5)CC4)CC3)c2n1 (stereo not drawn) [TCMDC-140064]
- Unified cytotox (HepG2 cells): 12.59 µM
- IC50 [1]: 0.69 µM
- Is compound selective in assay? Pf FGAA active? [2]: 1 (1: YES)

Compound: O=C(/C=C/c1ccc(Cl)c(Cl)c1)N1CCC(CN2CCC(c3c[nH]c4ccncc34)CC2)CC1 [TCMDC-140074]
- Unified cytotox (HepG2 cells): 5.32 µM
- IC50 [1]: 0.87 µM
- Is compound selective in assay? Pf FGAA active? [2]: 0 (0: NO)

Compound: CC(=O)Nc1ccc2[nH]cc(C3CCN(CC4CCN(C(=O)/C=C/c5ccc(Cl)c(Cl)c5)CC4)CC3)c2n1 [TCMDC-140112]
- Unified cytotox (HepG2 cells): 12.59 µM
- IC50 [1]: 1.38 µM
- Is compound selective in assay? Pf FGAA active? [2]: 0 (0: NO)

Compound: CC(=O)Nc1ccc2[nH]cc(C3CCN(CC4CCC(NC(=O)/C=C/c5ccc(Cl)c(Cl)c5)CC4)CC3)c2n1 (stereo not drawn) [TCMDC-140114]
- Unified cytotox (HepG2 cells): 13.49 µM
- IC50 [1]: 1.74 µM
- Is compound selective in assay? Pf FGAA active? [2]: 0 (0: NO)

Compound: Nc1cc2c(C3CCN(CC4CCN(C(=O)/C=C/c5ccc(Cl)c(Cl)c5)CC4)CC3)c[nH]c2cn1 [TCMDC-140133]
- Unified cytotox (HepG2 cells): 6.24 µM
- IC50 [1]: 1.97 µM
- Is compound selective in assay? Pf FGAA active? [2]: 0 (0: NO)

Compound: COc1ccc(-c2ccccc2)cc1NC(=S)NC1CCC(CN2CCC(c3c[nH]c4ccccc34)CC2)CC1 (stereo not drawn) [TCMDC-140182]
- Unified cytotox (HepG2 cells): 5.50 µM
- IC50 [1]: 1.65 µM
- Is compound selective in assay? Pf FGAA active? [2]: 0 (0: NO)

Compound: CCN(CC)CCN(Cc1ccc(-c2ccc(Cl)cc2)cc1)C(=O)Cn1cc(CN(C)C)c(=O)nc1SCc1ccc(F)cc1 [TCMDC-140406]
- Unified cytotox (HepG2 cells): 6.61 µM
- IC50 [1]: 1.38 µM
- Is compound selective in assay? Pf FGAA active? [2]: 0 (0: NO)

Compound: CN1CCN(CCCNCc2ccccc2-c2cccc(CNCc3ccc4c(c3)OCO4)c2)CC1.O=C(O)C(F)(F)F [TCMDC-140476]
- Unified cytotox (HepG2 cells): 1.51 µM
- IC50 [1]: 1.64 µM
- Is compound selective in assay? Pf FGAA active? [2]: 0 (0: NO)
